Data reported in article PMC8022858, “Discovery of bone morphogenetic protein 7-derived peptide sequences that attenuate the human osteoarthritic chondrocyte phenotype” (Molecular Therapy. Methods & Clinical Development, 2021).

Columns and labels:
rat MMT model = experiment: Rat medial meniscal tear (MMT) model, histopathological scoring of knee joints; type: in vivo; conditions: for histology of medial tibia plateau (toluidine blue), cartilage-degenerative changes: 100 ng in 50 μL saline intra-articular, two times per week from 1 week post-surgery, 10 rats per group (Figure 7A); for total joint score: versus saline (Figure 7E)
Description: We next tested whether peptide p[63−82] has the potency to delay the progression of trauma-induced cartilage degeneration in the rat MMT model.[34]^,[35] MMT damage was unilaterally initiated. Starting at 1 week post-MMT surgery, rats were two times per week intra-articularly injected with saline, 100 ng peptide p[63−82] in saline, or 100 ng scrambled peptide p[63−82] in saline. At 4 weeks post-MMT surgery, rats were sacrificed for histopathological scoring of the MMT knee joints. […] However, cartilage-degenerative changes were less apparent in the p[63−82] group (Figure 7A, middle panel). […] The femoral compartment also developed cartilage degeneration but less pronounced. This compartment is also more variable in its degenerative changes.[35] […] Cartilage-degeneration scores in zones 2 and 3 were generally low, as is known for the rat MMT model.[35] […] Other scored histopathological items can be found in Figure S5.
Figure 7 BMP7-derived peptide p[63−82] in rat MMT model The potency of BMP7 peptide p[63−82] to delay the progression of trauma-induced cartilage degeneration was tested in the rat MMT model. 1 week post-MMT-surgery, rats were two times per week intra-articularly injected with saline, 100 ng peptide p[63−82] in saline, or 100 ng scrambled peptide p[63−82] in saline (10 rats per group). All injection volumes were 50 μL. At 4 weeks post-MMT surgery, rats were sacrificed for histopathological scoring of the MMT knee joints. (A) Representative micrographs of toluidine blue-stained sections of medial aspects of the MMT knee joints. Conditions are indicated. (B) Medial tibia cartilage-degeneration scores. (C) Medial femur cartilage-degeneration scores. (D) Medial tibia cartilage-degeneration depth ratios. Scores and ratios are shown for zones 1, 2, and 3 individually.[35] The total scores/ratio are cumulative for zone 1, 2, and 3. (E) Total joint scores. Individual data points represent individual rats. Error bars represent mean ± SEM. Statistical differences were calculated between groups (Mann-Whitney U test), and ∗p < 0.05, ∗∗p < 0.01, and ∗∗∗p < 0.001.
The study was conducted via a contract research project at Bolder BioPATH (Boulder, CO, USA); study designs and animal usage were approved by their Institutional Animal Care and Use Committee (IACUC) prior to study initiation (IACUC protocols BBP13-029 and BBP12-004). Animal care, including room, cage, and equipment sanitation, conformed to accepted guidelines cited in the Guide for the Care and Use of Laboratory Animals (the Guide; 2011) and the applicable Bolder BioPATH standard operating procedures (SOPs). Male Lewis rats (n = 48; ∼283 g; Envigo RMS, Indianapolis, IN, USA) underwent a unilateral MMT on study day 0, as established earlier by Bendele et al.[59]^,[60] Rats were intra-articularly injected on days 7, 10, 14, 17, 21, and 24 with saline (0.9% NaCl, 50 μL/injection/animal), peptide p[63−82] (100 ng [in 50 μL saline]/injection/animal), or scrambled peptide p[63−82] (100 ng [in 50 μL saline]/injection/animal). The animals were euthanized for necropsy 28 days post-surgery.[59]^,[60] Right (surgery) knees from all animals were collected, trimmed of muscle (patella removed), and placed in 10% neutral-buffered formalin and then transferred to 70% ethanol for processing for microscopy. Operated joints were cut into two approximately equal halves in the frontal plane and embedded in paraffin. One section was cut from each knee and stained with toluidine blue. The worst-case scenario for the two halves on each slide was determined and used for evaluation. The tissues were analyzed microscopically by a veterinary pathologist as described earlier[35] (Tables S4–S13).

OA-HACs = experiment: ALP activity assay in OA-HAC cultures; type: cell-based, human; conditions: three individual OA-HAC donors, 100 nM peptide, 24 h, normalized to total protein (Figure 2E)
Description: Figure 2 Bioactivity of BMP7-derived peptides p[63−82] and p[113−132] on OA-HACs Complete peptide library screening quantitative real-time PCR dataset for peptides p[63−82] and p[113−132] is presented. (A) SOX9, COL2A1, and NKX3-2 mRNA expression in the 18 OA-HAC pool exposed to 1,000, 100, 10, or 1 nM of peptide p[63−82] and p[113−132] is shown and presented relative to control (black bars) and alongside full-length BMP7 (white bars). (B) Similar to (A) but for chondrocyte hypertrophy-associated genes RUNX2, COL10A1, and ALPL. (C) Similar to (A) but for cartilage extracellular matrix remodeling-associated genes MMP13 and ADAMTS5 and inflammation-related genes COX-2 and IL-6. […] (G) In the same OA-HAC pool of 18 OA-HAC donors from the peptide library screening, sequence dependency of peptides p[63−82] and p[113−132] was determined by exposing the OA-HAC pool to scrambled versions of peptides p[63−82] and p[113−132] […] Error bars represent mean ± SEM, and statistical significance for peptide conditions or BMP7 versus control condition as determined by unpaired two-tailed Student’s t test is represented as ∗p < 0.05, ∗∗p < 0.01, and ∗∗∗p < 0.001.
Cells were lysed in 1.5 M Tris-HCl (pH 9.0) and 2% (v/v) Triton X-100 and homogenized by sonication (Soniprep 150 MSE). […] Total protein concentration was determined by a BCA assay. […]

[1] = 100 ng intra-articular two times per week, 4 weeks (Figure 7D)
[2] = 100 ng intra-articular two times per week, 4 weeks (Figures 7B, 7C)
[3] = 100 ng intra-articular two times per week, 4 weeks

## H-AAYYSEGESAFPLNSYMNAT-OH [p[63−82]]
Rat MMT model; 4 weeks
  histology of medial tibia plateau (toluidine blue), cartilage-degenerative changes: less apparent
Rat MMT model; 100 ng intra-articular two times per week, 4 weeks (Figure 7C)
  medial femur cartilage-degeneration score, zone 1, versus saline: trend toward a statistically significant lower
Rat MMT model; [1]
  depth ratio of tibia cartilage degeneration, zone 1, versus saline: significantly lower
  total depth ratio score of tibia cartilage degeneration, versus saline: significantly lower
Rat MMT model; [2]
  cartilage-degeneration scores, p[63-82] versus scrambled p[63-82]: did not reveal differences that were statistically significant
  combined (total) tibia and femur cartilage-degeneration scores, versus saline: significantly lower
Rat MMT model; 100 ng intra-articular two times per week, 4 weeks, Mann-Whitney U test (Figure 7B)
  medial tibia cartilage-degeneration score, zone 1, versus saline: significantly lower
Rat MMT model; [3]
  total joint score: significantly lower
Rat MMT model; 100 ng intra-articular two times per week, 4 weeks, listed as p[62−83]
  total joint score: significantly improve
OA-HACs
  alkaline phosphatase (ALP) activity: significant decrease

## H-SEASPAMYYLNATANFYESG-OH [scrambled p[63−82], scrambled version of peptide p[63−82], reference compound]
Rat MMT model; 4 weeks
  histology of medial tibia plateau (toluidine blue), cartilage-degenerative changes: diminished toluidine blue staining and lower chondrocyte cellularity at the lateral side of the medial tibia plateau, as well as cartilage degeneration
Rat MMT model; [2]
  cartilage-degeneration scores of tibia or femur in any of the 3 zones, versus saline: no statistically significant differences
  combined (total) tibia and femur cartilage-degeneration scores, versus saline: Neither was there a significant difference
Rat MMT model; [3]
  total joint score: in between the values for saline and p[63−82] peptide but was not statistically different compared to either one of the saline or p[63−82] conditions

## H-SVLYFDDSSNVILKKYRNMV-OH [p[113−132]]
OA-HACs
  alkaline phosphatase (ALP) activity: significant decrease
